≈ marks a conversion by molar mass, not a printed value.
Tests used:
[1] = molecular target: T1, Kappa-type opioid receptor (Homo sapiens, UniProt P41145); experiment: Inhibition of KOP (unknown origin)
[2] = AUC (0 to infinity) in cynomolgus monkey at 10 mg/kg,po; type: ADME, organism-based, Macaca fascicularis; details: in vivo
[3] = Tmax in C57BL mouse at […] measured upto 24 hrs by LC-MS/MS analysis; type: ADME, organism-based; details: in vivo
[4] = Toxicity in NSG mouse xenografted with human MOLM-13 cells assessed as change in body weight at 0.031 to 0.25 mg/kg,po administrated daily for 10 days relative to control; type: organism-based; details: in vivo, 240 h, dose 0.031-0.25 mg/kg, time 10 day
[5] = Inhibition of Sodium ion channel (unknown origin); design: species or system Homo sapiens
[6] = Half life in rat hepatocyte; type: ADME, cell-based; details: hepatocytes
[7] = Metabolic stability in human liver microsomes assessed as half life incubated upto 60 mins in presence of NADPH by LC-MS/MS analysis; type: ADME, Microsome
[8] = Volume of distribution at steady state in cynomolgus monkey at 1 mg/kg,iv; type: ADME, organism-based, Macaca fascicularis; details: in vivo, read-out: Vdss
MOLM-13 [9] = experiment: Antiproliferative activity against human MOLM-13 cells assessed as inhibition of cell growth incubated for 72 hrs by CellTiter-Glo assay; type: functional, cell-based; details: MOLM-13, 72 h
[10] = Lipophilicity, logD of compound; type: physicochemical; details: octanol/water
[11] = Metabolic stability in mouse liver microsomes assessed as half life incubated upto 60 mins in presence of NADPH by LC-MS/MS analysis; type: ADME, Microsome
[12] = AUC (0 to infinity) in C57BL mouse at 2 mg/kg,iv measured upto 24 hrs by LC-MS/MS analysis; type: ADME, organism-based; details: in vivo
[13] = molecular target: T2, Dihydroorotate dehydrogenase (quinone), mitochondrial (Homo sapiens, UniProt Q02127); experiment: Binding affinity to recombinant human DHODH assessed as dissociation constant by surface plasmon resonance assay
T2 sequence (Q02127 whole entry): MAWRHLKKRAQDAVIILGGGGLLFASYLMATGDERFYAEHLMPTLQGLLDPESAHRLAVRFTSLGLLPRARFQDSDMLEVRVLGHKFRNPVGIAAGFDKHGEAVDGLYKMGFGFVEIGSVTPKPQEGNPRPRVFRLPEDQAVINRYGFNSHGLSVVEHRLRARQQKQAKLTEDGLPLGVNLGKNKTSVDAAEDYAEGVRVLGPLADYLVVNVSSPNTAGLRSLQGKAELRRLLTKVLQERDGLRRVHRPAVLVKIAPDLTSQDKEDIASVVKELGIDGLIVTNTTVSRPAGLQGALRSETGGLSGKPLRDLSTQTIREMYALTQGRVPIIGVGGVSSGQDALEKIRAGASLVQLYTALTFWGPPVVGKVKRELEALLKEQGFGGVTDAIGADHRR

MOLM-13 [14] = experiment: Antitumor activity against human MOLM-13 cells xenografted in NSG mouse assessed as tumor growth inhibition at 0.125 mg/kg,po administrated daily for 10 days relative to control; type: functional; details: MOLM-13, 240 h, time 10 day, read-out: TGI
[15] = Volume of distribution at steady state in C57BL mouse at 2 mg/kg,iv measured upto 24 hrs by LC-MS/MS analysis; type: ADME, organism-based; details: in vivo, read-out: Vdss
[16] = molecular target: Serine/threonine-protein kinase WNK2 (Homo sapiens) (UniProt Q9Y3S1); experiment: Inhibition of WNK2 (unknown origin) at 1 uM relative to control
Chain of Serine/threonine-protein kinase WNK2 (Homo sapiens) (Q9Y3S1 whole entry): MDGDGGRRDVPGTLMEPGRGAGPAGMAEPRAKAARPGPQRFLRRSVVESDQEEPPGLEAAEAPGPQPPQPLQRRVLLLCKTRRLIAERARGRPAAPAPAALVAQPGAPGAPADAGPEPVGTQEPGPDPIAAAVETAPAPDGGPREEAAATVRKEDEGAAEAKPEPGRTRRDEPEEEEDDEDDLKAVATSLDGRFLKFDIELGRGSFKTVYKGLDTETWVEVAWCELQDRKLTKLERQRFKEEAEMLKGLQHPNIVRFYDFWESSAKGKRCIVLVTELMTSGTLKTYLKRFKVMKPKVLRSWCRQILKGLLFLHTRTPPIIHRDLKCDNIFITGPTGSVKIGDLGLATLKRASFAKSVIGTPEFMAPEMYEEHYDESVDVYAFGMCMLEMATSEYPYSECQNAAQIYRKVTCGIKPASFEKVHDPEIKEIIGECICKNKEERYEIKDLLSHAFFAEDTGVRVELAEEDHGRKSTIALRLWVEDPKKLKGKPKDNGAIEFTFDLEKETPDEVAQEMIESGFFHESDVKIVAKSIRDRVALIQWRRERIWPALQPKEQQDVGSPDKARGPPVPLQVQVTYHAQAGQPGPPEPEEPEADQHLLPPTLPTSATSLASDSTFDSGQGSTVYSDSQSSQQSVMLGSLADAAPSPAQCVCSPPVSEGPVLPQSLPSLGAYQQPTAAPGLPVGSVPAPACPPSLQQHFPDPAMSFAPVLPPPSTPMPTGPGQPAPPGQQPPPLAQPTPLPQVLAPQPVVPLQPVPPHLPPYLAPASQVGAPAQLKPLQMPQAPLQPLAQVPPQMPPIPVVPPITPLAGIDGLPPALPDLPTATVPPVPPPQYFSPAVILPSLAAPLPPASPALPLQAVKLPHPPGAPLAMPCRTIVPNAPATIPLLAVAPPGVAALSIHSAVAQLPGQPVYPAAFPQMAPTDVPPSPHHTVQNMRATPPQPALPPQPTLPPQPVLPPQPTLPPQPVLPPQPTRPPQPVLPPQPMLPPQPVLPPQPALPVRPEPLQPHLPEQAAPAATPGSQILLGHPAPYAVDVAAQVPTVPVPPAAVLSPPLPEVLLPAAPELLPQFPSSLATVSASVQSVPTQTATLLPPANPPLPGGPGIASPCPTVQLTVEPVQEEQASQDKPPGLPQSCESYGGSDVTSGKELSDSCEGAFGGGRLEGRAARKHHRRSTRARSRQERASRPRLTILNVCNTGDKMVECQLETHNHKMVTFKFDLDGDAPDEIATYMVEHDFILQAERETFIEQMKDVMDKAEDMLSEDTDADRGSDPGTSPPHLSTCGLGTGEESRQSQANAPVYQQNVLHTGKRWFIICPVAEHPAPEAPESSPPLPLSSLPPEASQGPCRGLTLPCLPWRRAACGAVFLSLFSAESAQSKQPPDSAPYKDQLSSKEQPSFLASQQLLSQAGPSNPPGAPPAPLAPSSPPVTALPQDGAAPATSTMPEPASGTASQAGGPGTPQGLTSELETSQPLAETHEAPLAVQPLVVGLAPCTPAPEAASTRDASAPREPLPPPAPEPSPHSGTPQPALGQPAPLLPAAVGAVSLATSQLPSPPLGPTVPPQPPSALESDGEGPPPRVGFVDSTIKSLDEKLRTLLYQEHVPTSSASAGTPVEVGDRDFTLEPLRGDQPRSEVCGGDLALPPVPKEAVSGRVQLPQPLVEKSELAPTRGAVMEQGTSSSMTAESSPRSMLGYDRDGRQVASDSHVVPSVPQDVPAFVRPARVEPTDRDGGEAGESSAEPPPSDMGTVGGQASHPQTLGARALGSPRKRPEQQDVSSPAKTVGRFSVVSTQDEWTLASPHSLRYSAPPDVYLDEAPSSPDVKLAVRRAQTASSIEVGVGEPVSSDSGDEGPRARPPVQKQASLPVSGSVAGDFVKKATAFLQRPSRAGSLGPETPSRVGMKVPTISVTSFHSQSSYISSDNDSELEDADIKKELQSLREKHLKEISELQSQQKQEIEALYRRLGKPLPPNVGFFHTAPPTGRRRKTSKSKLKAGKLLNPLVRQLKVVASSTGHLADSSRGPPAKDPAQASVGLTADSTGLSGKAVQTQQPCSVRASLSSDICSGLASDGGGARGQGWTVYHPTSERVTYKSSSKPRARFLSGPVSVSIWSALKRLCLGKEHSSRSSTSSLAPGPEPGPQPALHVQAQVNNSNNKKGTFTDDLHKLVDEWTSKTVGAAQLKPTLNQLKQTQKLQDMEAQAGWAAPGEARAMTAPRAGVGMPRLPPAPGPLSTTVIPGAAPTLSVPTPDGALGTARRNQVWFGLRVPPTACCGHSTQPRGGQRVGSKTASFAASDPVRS

[17] = Metabolic stability in rat liver microsomes assessed as half life incubated upto 60 mins in presence of NADPH by LC-MS/MS analysis; type: ADME, Microsome
[18] = molecular target: T2, Dihydroorotate dehydrogenase (quinone), mitochondrial; experiment: Binding affinity to recombinant human DHODH assessed as half life
[19] = Equilibrium solubility of compound in FaSSIF at pH 6.5 using crystalline form incubated for 2 to 5 days by HPLC analysis; type: ADME; details: time 2-5 day
[20] = Oral bioavailability in C57BL mouse at 10 mg/kg measured upto 24 hrs by LC-MS/MS analysis; type: ADME, organism-based; details: in vivo
[21] = Half life in monkey hepatocyte; type: ADME, cell-based, Macaca mulatta; details: rhesus monkey, hepatocytes
[22] = Inhibition of Calcium ion channel (unknown origin); design: species or system Homo sapiens
PXR (NR1I2) [23] = molecular target: T3, PXR (NR1I2) (Homo sapiens, UniProt O75469); experiment: Activation of PXR (unknown origin) assessed as fold change at 1 uM relative to control; type: ADME; details: read-out: FC
T3 sequence (O75469 whole entry): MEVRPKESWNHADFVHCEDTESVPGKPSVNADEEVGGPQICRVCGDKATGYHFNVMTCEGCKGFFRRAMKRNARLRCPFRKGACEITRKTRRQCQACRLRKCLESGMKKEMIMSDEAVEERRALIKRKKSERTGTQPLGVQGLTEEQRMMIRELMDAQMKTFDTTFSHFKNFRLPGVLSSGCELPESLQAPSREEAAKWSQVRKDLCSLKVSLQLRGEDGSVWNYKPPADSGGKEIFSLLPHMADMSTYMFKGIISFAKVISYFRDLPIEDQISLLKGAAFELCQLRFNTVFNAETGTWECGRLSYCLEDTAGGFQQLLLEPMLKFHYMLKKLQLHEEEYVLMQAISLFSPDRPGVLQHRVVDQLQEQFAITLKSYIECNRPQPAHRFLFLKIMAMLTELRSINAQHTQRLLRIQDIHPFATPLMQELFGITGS

[24] = Plasma protein binding in C57BL mouse at 1 uM incubated for 6.5 hrs by LC-MS/MS analysis; type: ADME, cell-free; details: read-out: PPB (converted)
[25] = Plasma protein binding in human at 1 uM incubated for 6.5 hrs by LC-MS/MS analysis; type: ADME, cell-free; details: read-out: PPB (converted)
[26] = molecular target: T1, Kappa-type opioid receptor; experiment: Inhibition of KOP (unknown origin) at 10 uM relative to control
[27] = Half life in mouse hepatocyte; type: ADME, cell-based; details: hepatocytes
PXR (NR1I2) [28] = molecular target: T3, PXR (NR1I2); experiment: Activation of PXR (unknown origin) assessed as fold change at 10 uM relative to control; type: ADME; details: read-out: FC
[29] = Cmax in C57BL mouse at […] measured upto 24 hrs by LC-MS/MS analysis; type: ADME, organism-based; details: in vivo
[30] = molecular target: T4, Aryl hydrocarbon receptor (Homo sapiens, UniProt P35869); experiment: Activation of AhR (unknown origin) at 1 to 10 uM; details: dose 1-10 µM
T4 sequence (P35869 whole entry): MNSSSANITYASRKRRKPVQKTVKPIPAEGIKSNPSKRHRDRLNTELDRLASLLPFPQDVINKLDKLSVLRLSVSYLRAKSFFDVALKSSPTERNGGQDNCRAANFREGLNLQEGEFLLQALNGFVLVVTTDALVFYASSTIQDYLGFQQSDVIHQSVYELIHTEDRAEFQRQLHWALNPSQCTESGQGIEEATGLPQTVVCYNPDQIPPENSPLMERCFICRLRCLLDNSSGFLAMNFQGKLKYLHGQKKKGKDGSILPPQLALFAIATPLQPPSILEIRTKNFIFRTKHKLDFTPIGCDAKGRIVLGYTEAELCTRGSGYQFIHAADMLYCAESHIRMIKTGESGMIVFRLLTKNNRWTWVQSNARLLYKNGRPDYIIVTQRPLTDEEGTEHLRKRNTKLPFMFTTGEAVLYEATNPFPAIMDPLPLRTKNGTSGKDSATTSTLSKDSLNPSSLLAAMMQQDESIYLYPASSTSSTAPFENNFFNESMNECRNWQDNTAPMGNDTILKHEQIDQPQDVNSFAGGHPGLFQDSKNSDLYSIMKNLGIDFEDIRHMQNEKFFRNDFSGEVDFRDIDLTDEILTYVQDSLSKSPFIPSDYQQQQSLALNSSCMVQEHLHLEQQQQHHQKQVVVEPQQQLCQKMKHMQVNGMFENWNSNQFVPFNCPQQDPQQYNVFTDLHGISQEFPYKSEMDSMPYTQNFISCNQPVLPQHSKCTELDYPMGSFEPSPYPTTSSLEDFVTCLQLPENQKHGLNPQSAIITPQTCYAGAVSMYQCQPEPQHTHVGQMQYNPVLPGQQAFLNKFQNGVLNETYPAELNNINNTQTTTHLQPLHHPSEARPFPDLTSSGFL

[31] = Equilibrium solubility of compound in PBS at pH 7 incubated for 2 to 5 days by HPLC analysis; type: physicochemical; details: time 2-5 day

T1 sequence (P41145 whole entry): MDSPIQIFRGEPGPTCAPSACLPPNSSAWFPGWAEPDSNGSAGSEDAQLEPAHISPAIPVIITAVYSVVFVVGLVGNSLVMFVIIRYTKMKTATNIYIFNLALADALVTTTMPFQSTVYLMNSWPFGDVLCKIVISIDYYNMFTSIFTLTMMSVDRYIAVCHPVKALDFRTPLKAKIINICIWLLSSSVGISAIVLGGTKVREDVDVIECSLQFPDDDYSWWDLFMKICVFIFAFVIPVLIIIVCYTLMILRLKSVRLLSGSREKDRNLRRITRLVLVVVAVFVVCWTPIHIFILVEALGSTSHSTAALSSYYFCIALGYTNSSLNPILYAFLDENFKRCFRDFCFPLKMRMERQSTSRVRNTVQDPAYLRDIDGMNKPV

For `CCn1c(CO)nn(-c2cc3c(C(C)C)cn(-c4ccccc4C)c(=O)c3cc2F)c1=O`, the IC50 [1] was 14 µM, the AUC(0-inf) [2] was 64600 ng·h/mL and the Tmax [3] was 1.7 h. The Activity [4] was “Toxic”, the IC50 [5] was > 10 µM and the half-life [6] was > 6.18 h. The half-life [7] was > 3 h, the Vd [8] was 1.2 L/kg and the IC50 (MOLM-13 [9]) was 0.00019 µM. The logD [10] was 2.7, the half-life [11] was > 3 h and the AUC [12] was 57200 ng·h/mL. For the same compound, the Kd [13] was 0.00222 µM, the inhibition in vivo at 0.125 mg/kg (MOLM-13 [14]) was 92% and the Vd [15] was 1.6 L/kg. For the same compound, the inhibition [16] was 51%, the half-life [17] was > 3 h and the T1/2 [18] was 0.328 h. For the same compound, the solubility thermodynamic [19] was 67 µg/mL (≈ 153 µM), the bioavailability [20] was 125% and the half-life [21] was > 6.18 h. For the same compound, the IC50 [22] was > 10 µM, the fold induction at 1 µM (PXR (NR1I2) [23]) was 3.2 and the fraction unbound at 6.5 h, 1 µM [24] was 0.088. The fraction unbound at 6.5 h, 1 µM [25] was 0.099, the inhibition [26] was 96% and the half-life [27] was > 6.18 h. The fold induction at 10 µM (PXR (NR1I2) [28]) was 7.4, the Cmax [29] was 6200 ng/mL and the Activity [30] was “Not Active”. The solubility thermodynamic [31] was 371 µM (≈ 162 µg/mL).

From ChEMBL document CHEMBL5584243, “Discovery of JNJ-74856665: A Novel Isoquinolinone DHODH Inhibitor for the Treatment of AML” (J Med Chem, 2024)
